Data published in US20220009894A1, “1,2,3,4-TETRAHYDROQUINOXALINE DERIVATIVE, PREPARATION METHOD THEREFOR AND APPLICATION THEREOF” (Abbisko Therapeutics Co., Ltd., priority 2019, published 2022).

What was measured:
RORγt-LBD = target: T1, RORγt-LBD (Homo sapiens, UniProt P51449); test: Time-resolved fluorescence resonance energy-transfer assay (TR-FRET), co-activator peptide recruitment; format: biochemical; design: TR-FRET Biochemical Amax: unit not given here; details: for EC50: His-RORγt-LBD 30 nM, SRC peptide 500 nM, agonistic activity, averages of one or more measurements, read-out: TR-FRET Biochemical EC50/; for TR-FRET Biochemical Amax: upper activation limit, His-RORγt-LBD, SRC peptide
T1 sequence (P51449 269-508 limits assumed): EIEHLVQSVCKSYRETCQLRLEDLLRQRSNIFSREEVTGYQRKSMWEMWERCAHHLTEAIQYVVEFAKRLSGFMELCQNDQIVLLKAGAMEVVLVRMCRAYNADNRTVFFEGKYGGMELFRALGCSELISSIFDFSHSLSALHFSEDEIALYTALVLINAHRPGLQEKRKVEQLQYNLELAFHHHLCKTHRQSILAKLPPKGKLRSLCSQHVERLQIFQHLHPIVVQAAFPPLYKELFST
From the text: I. Time-Resolved Fluorescence Resonance Energy-Transfer Assay (TR-FRET)
This experiment was a screening experiment for RORγt nuclear receptor agonists based on TR-FRET technology. When His-labeled RORγt-LBD receptor binds to receptor agonists, it may increase the recruitment of biotin-labeled co-activator peptides. Europium-His-RORγt-LBD is indirectly labeled by donor (Eu) by binding to Eu-anti-His antibody. Once Eu is activated by an energy source (such as flashlight or laser), the energy will be transferred to the co-activator indirectly labeled by allophycocyanin by binding of allophycocyanin-streptavidin and biotin-labeled co-activator. • 1. 10× buffer (500 mM Tris-HCl, 500 mM KCl, and 10 mM Na-EDTA) was prepared, pH value was adjusted to 7.0. The buffer was stored at 4° C. for later use and was restored to normal temperature before experiment; • 2. The 10× buffer was diluted to 1× with pure water. Final concentration of 0.01% Triton X-100 and 1 mM DTT (dithiothreitol) were added to prepare the assay buffer; • 3. DMSO was used to prepare 1000× compound stock solution. The compound solution was serial-diluted in 5-fold for 7 concentrations from the top concentration of 1000 nM/10000 nM. Then the 10× compound solution was prepared with assay buffer. An amount of 2 μL was aliquoted into the 20 μL system; • 4. 5×RORγt-LBD protein solution was unfreezed, and a solution of 5× concentration was prepared with assay buffer to obtain a final concentration of 30 nM. The whole operation was carried out on ice; • 5. 5×SRC peptide was unfreezed, and a solution of 5× concentration was prepared with assay buffer to obtain a final concentration of 500 nM. The whole operation was carried out on ice; • 6. 4 μL/well of RORγt-LBD receptor was added into the testing wells of 384-well plate, and the same amount of assay buffer was added to the control wells of non-RORγt-LBD group; • 7. 2 μL of compound was added into each well of 384-well plate; • 8. 4 μL of SRC peptide was added into each well of 384-well plate; • 9. 2× Eu-anti-6× His/APC-Streptavidin was diluted with Lance detection buffer to a final concentration of 0.25 nM and 5 nM, respectively, and then 10 μL of 2× Eu-anti-6× His/APC-Streptavidin was added into each well of 384-well plate; • 10. The mixed solution was incubated at 4° C. overnight; • 11. On the morning of the next day, the 384-well plate was incubated at room temperature for 1 hr. Then the corresponding signal values were read with PerkinElmer EnVision at a wavelength of 665/615 […]. The agonistic activity of the corresponding compound was calculated with Graphpad Prism 7.0 software.

RORγt = target: T2, RORγt (Homo sapiens, UniProt P51449); test: RORγt cellular reporter gene detection assay; format: cell-based; details: 24 hrs; for EC50: HEK 293 cells co-transfected with pFN26A-RORγt-LBD and pG14.35, in presence of antagonist Ursolic acid, top concentration 50 μM; for Cellular Reporter Assay Amax: upper activation limit, HEK 293 cells, in presence of antagonist Ursolic acid;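 on Cellular Reporter Assay Amax: Ursolic Acid added as 5 µL of 20 µM medium per well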
T2 construct: The plasmid of pFN26A-RORγt-LBD and pG14.35 (Promega, Cat. No. E1370) were co-transfected into HEK 293 cells; expressed in transfected cells; host or cells: HEK 293 cells (Cat. No. GNHu18)
T2 sequence (P51449 269-508 limits assumed): T1 sequence (P51449 269-508 limits assumed)
Description: II. RORγt Cellular Reporter Gene Detection Assay
In this experiment, RORγt Reporter Gene Detection method was used to evaluate the activation and specificity of compounds to RORγt in cells. The plasmid of pFN26A-RORγt-LBD and pG14.35 (Promega, Cat. No. E1370) were co-transfected into HEK 293 cells (Cat. No. GNHu18). The efficacy of compounds was evaluated with the presence of an antagonist Ursolic acid (Selleck, Cat. No. S2370-100 mg). The specific experimental process was as follow: • 1. The plasmids-co-transfected cells were inoculated into a 96-well plate (Corning, Cat. No 3610) in a fresh DMEM medium (Gibco, cat. No. 1773536) containing 10% fetal bovine serum (Gibco, Cat. No. 10099-141) at 30000 cells/40 μL/well; • 2. 5 μL of medium containing 20 μM Ursolic acid was added thereto; • 3. The dose effect was evaluated by a 4-fold dilution of the test compound starting from 50 μM; • 4. 5 μL of medium containing a compound concentration of 10-fold of its final test concentration was added; • 5. After the cells were incubated at 37° C. and 5% CO2 for 24 hrs, 50 μL of detection reagent was added to detect firefly fluorescence using PerkinElmerEnVision, and 50 μL of the second detection reagent was added to detect sea kidney fluorescence; • 6. A four-parameter curve simulated in GraphPad Prism was used to determine the concentration for 50% activation (EC50) and the upper activation limit (Amax) for each compound.

Row | EC50 (RORγt-LBD) [nM] | TR-FRET Biochemical Amax (RORγt-LBD) | EC50 (RORγt) [nM] | Cellular Reporter Assay Amax (RORγt) | Structure (SMILES)
1 | 6.35 | 0.84 | 441 | 4.4 | C/C(=C\c1ccc2c(c1)N(S(=O)(=O)c1cccc(C(F)(F)F)c1)C[C@@H]1CN(C(C)C(=O)O)CCN21)c1c(F)cccc1Cl (stereo partly drawn) [Example 25, 2-((S)-8-((E)-2-(2-chloro-6-fluorophenyl)prop-1-en-1-yl)-6-((3-(trifluoromethyl)phenyl)sulfonyl)-1,2,4,4a,5,6-hexahydro-3H-pyrazino[1,2-a]quinoxalin-3-yl) propanoic acid]
2 | 29.6 | 0.64 | 404 | 2.3 | CC(C(=O)O)N1CCN2c3ccc(-c4cc(F)cc(OC(F)F)c4)cc3N(S(=O)(=O)c3cccc(C(F)(F)F)c3)C[C@@H]2C1 (stereo partly drawn) [Example 26, 2-((S)-8-(3-(difluorome-thoxy)-5-fluorophenyl)-6-((3-(trifluoromethyl)phe-nyl)sulfonyl)-1,2,4,4a,5,6-hexahydro-3H-pyrazino[1,2-a]quinoxalin-3-yl) propanoic acid]
3 | 5.25 | 0.61 | 228 | 3.9 | CC(C(=O)O)N1CCN2c3ccc(C4=CC(C)(C)OC(C)(C)C4)cc3N(S(=O)(=O)c3cccc(C(F)(F)F)c3)C[C@@H]2C1 (stereo partly drawn) [Example 27, 2-((S)-8-(2,2,6,6-tetrameth-yl-3,6-dihydro-2H-pyran-4-yl)-6-((3-(trifluorometh-yl)phenyl)sulfonyl)-1,2,4,4a,5,6-hexahydro-3H-pyrazino[1,2-a]quinoxalin-3-yl)propanoic acid]
4 | 14.7 | 0.86 | 354 | 2.6 | N#CCC(=O)N1CCN2c3ccc(-c4cc(F)cc(OC(F)F)c4)cc3N(S(=O)(=O)c3cccc(C(F)(F)F)c3)C[C@@H]2C1 [Example 28, (S)-3-(8-(3-(difluoromethoxy)-5-fluorophenyl)-6-((3-(trifluoromethyl)phenyl)sulfonyl)-1,2,4,4a,5,6-hexahydro-3H-pyrazino[1,2-a]quinoxalin-3-yl)-3-oxopropanenitrile]
5 | 17.3 | 0.84 | 1980 | 6.7 | N#CCC(=O)N1CCN2c3ccc(/C=C/c4c(Cl)cccc4C(F)(F)F)cc3N(S(=O)(=O)c3cccc(C(F)(F)F)c3)C[C@@H]2C1 [Example 29, (S,E)-3-(8-(2-chloro-6-(tri-fluoromethyl)styryl)-6-((3-(trifluoromethyl)phenyl)sulfonyl)-1,2,4,4a,5,6-hexa-hydro-3H-pyrazino[1,2-a]quinoxalin-3-yl)-3-oxopro-panenitrile]
6 | 8.34 | 0.80 | 404 | 4.0 | C/C(=C\c1ccc2c(c1)N(S(=O)(=O)c1cccc(C(F)(F)F)c1)C[C@@H]1CN(C(=O)CC#N)CCN21)c1c(F)cccc1Cl [Example 30, (S,E)-3-(8-(2-(2-chloro-6-fluorophenyl)prop-1-en-1-yl)-6-((3-(trifluoromethyl)phenyl)sulfonyl)-1,2,4,4a, 5,6-hexahydro-3H-pyrazino [1,2-a]quinoxalin-3-yl)-3-oxopropanenitrile]
7 | 11.5 | 0.97 | 419 | 3.4 | CC1(C)C=C(c2ccc3c(c2)N(S(=O)(=O)c2cccc(C(F)(F)F)c2)C[C@@H]2CN(C(=O)CC#N)CCN32)CC(C)(C)O1 [Example 31, (S)-3-oxo-3-(8-(2,2,6,6-tetramethyl-3,6-dihydro-2H-pyran-4-yl)-6-((3-(trifluoro-methyl)phenyl)sulfonyl)-1,2,4,4a,5,6-hexahydro-3H-pyrazino[1,2-a]quinoxa-lin-3-yl)propanenitrile]
8 | 10.8 | 0.93 | 599 | 4.3 | O=S(=O)(c1cccc(C(F)(F)F)c1)N1C[C@@H]2CN(C3COC3)CCN2c2ccc(/C=C/c3c(Cl)cccc3C(F)(F)F)cc21 [Example 32, (S,E)-8-(2-chloro-6-(trifluoromethyl)styryl)-3-(oxetan-3-yl)-6-((3-(trifluoromethyl)phenyl)sulfonyl)-2,3,4,4a,5,6-hexahydro-1H-pyrazino[1,2-a]quinoxaline]
9 | 45.7 | 0.93 | 2040 | 5.2 | C/C(=C\c1ccc2c(c1)N(S(=O)(=O)c1cccc(C(F)(F)F)c1)C[C@@H]1CN(C3COC3)CCN21)c1c(F)cccc1Cl [Example 33, (S,E)-8-(2-(2-chloro-6-fluoro-phenyl)prop-1-en-1-yl)-3-(oxetan-3-yl)-6-((3-(trifluoro-methyl)pheny4)sulfonyl)-2,3,4,4a,5,6-hexahydro-1H-pyrazino[1,2-a]quinoxaline]
10 | 3.91 | 1.11 | 156 | 1.7 | CC1(C)C=C(c2ccc3c(c2)N(S(=O)(=O)c2cccc(C(F)(F)F)c2)C[C@@H]2CN(C4COC4)CCN32)CC(C)(C)O1 [Example 34, (S)-3-(oxetan-3-yl)-8-(2,2,6,6-tetramethyl-3,6-dihydro-2H-pyran-4-yl)-6-((3-(trifluoro-methyl)phenyl)sulfonyl)-2,3,4,4a,5,6-hexahydro-1H-pyrazino[1,2-a]quinoxaline]
11 | 24 | 1.15 | 467 | 4.2 | O=S(=O)(c1cccc(C(F)(F)F)c1)N1C[C@@H]2CN(C[C@@H](O)CO)CCN2c2ccc(/C=C/c3c(Cl)cccc3C(F)(F)F)cc21 [Example 35, (R)-3-((S)-8-((E)-2-chloro-6-(trifluoromethyl)styryl)-6-((3-(trifluoromethyl)phenyl)sulfonyl)-1,2,4,4a,5,6-hexahydro-3H-pyrazino[1,2-a]quinoxalin-3-yl)propane-1,2-diol]
12 | 24.9 | 1.23 | 501 | 4.1 | O=S(=O)(c1cccc(C(F)(F)F)c1)N1C[C@@H]2CN(C[C@H](O)CO)CCN2c2ccc(/C=C/c3c(Cl)cccc3C(F)(F)F)cc21 [Example 36, (S)-3-((S)-8-((E)-2-chloro-6-(trifluoromethyl)styryl)-6-((3-(trifluaromethyl)phenyl)sulfonyl)-1,2,4,4a,5,6-hexahydro-3H-pyrazino[1,2-a]quinoxalin-3-yl)-propane-1,2-diol]
